Test results taken from US20230081426A1, “COMPOUNDS AND METHODS FOR KRAS MODULATION AND INDICATIONS THEREFOR” (Plexxikon Inc., priority 2020, published 2023).

biological target: T1, G12D-mutant human KRAS (amino acid residues 1-188) (Homo sapiens, UniProt P01116, G12D); experiment: KRAS Binding Disruption Assay (AlphaScreen; biotinylated KRpep-2d analogue or RAF1-RBD), G12D; conditions: KRAS G12D; geometric mean; read-out: KRAS GMean IC50 (uM) MUTATION: G12D
T1 construct: G12D or G12C-mutant human KRAS (amino acid residues 1-188) with FLAG tag; made in house; host or cells: E. coli
T1 sequence (P01116 1-188 isoform P01116-2 G12D): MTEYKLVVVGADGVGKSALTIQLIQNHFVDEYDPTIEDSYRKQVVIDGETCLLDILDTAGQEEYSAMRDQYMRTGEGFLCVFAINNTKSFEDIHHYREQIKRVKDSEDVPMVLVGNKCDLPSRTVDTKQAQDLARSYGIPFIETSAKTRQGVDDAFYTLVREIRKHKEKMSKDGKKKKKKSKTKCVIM
Protocol: Compound binding disrupts the interaction of KRpep-2d or RAF1-RBD with KRAS, leading to a decrease in Alpha signal.
All assay components were prepared in 20 mM HEPES (pH 7.5), 100 mM NaCl, 5 mM MgCl2, 0.01% Tween-20, and 0.01% BSA. Biotinylated analogues of KRpep-2d were custom synthesized. The binding disruption assays were performed using 5-20 nM of mutant KRAS and 5-20 nM of either biotinylated KRpep-2d analogue or RAF1-RBD. 19 μL of KRAS protein and 4 μL of biotinylated KRpep-2d or RAF1-RBD were added to the wells of a 384-well plate containing 1 μL of various concentrations of test compound or DMSO vehicle. 16 wells containing KRAS, biotinylated KRpep-2d or RAF1-RBD, and 5% DMSO served as high controls. 16 wells containing KRAS only and 5% DMSO served as low controls. Binding reactions were incubated for 1 hour at 25° C., then Anti-Flag Acceptor and Streptavidin Donor Alpha beads were added at a final concentration of 10 μg/mL for an additional hour at room temperature. Alpha signal was read out on a Perkin Elmer Envision HTS instrument. The percentage inhibition at individual compound concentrations relative to high and low controls was calculated. The data were analyzed by using nonlinear regression to generate IC50 values.

Structure (SMILES)	IC50 [µM]
CNCCOc1nc(N2C[C@H]3CC[C@@H](C2)N3)c2ccc(-c3cc(O)cc4ccccc34)cc2n1 [P-0083, 4-(4-((1R,5S)-3,8-diazabicyclo[3.2.1]octan-3-yl)-2-(2-(methylamino)ethoxy)quinazolin-7-yl)naphthalen-2-ol]	10 to 100
CN1CCC[C@H]1COc1nc(N2C[C@H]3CC[C@@H]2CN3)c2ccc(-c3cc(O)cc4ccccc34)cc2n1 [P-0012, 4-(4-((1R,4R)-2,5-diazabicyclo[2.2.2]octan-2-yl)-2-(((S)-1-methylpyrrolidin-2-yl)methoxy)quinazolin-7-yl)naphthalen-2-ol]	0.0001 to 10
Fc1c(-c2cccc3cccc(Br)c23)ccc2c(N3C[C@H]4CC[C@@H](C3)N4)nc(OCC34CCCN3CCC4)nc12 [P-0571, 4-((1R,5S)-3,8-diazabicyclo[3.2.1]octan-3-yl)-7-(8-bromonaphthalen-1-yl)-8-fluoro-2-((tetrahydro-1H-pyrrolizin-7a(5H)-yl)methoxy)quinazoline]	0.0001 to 10
Cc1ccc(N)cc1-c1c(F)cc2c(N3C[C@H]4CC[C@@H](C3)N4)nc(OCC34CCCN3CCC4)nc2c1F [P-0596, 3-(4-((1R,5S)-3,8-diazabicyclo[3.2.1]octan-3-yl)-6,8-difluoro-2-((tetrahydro-1H-pyrrolizin-7a(5H)-yl)methoxy)quinazolin-7-yl)-4-methylaniline]	0.0001 to 10
O=C1NC2(CCO1)CN(c1nc(N3C[C@H]4CC[C@@H](C3)N4)c3ccc(-c4cc(O)cc5ccccc45)c(F)c3n1)C2 [P-0547, 2-(4-((1R,5S)-3,8-diazabicyclo[3.2.1]octan-3-yl)-8-fluoro-7-(3-hydroxynaphthalen-1-yl)quinazolin-2-yl)-7-oxa-2,5-diazaspiro[3.5]nonan-6-one]	0.0001 to 10
OCC1(CNc2nc(N3C[C@H]4CC[C@@H](C3)N4)c3ccc(-c4cc(O)cc5ccccc45)c(F)c3n2)CC(F)(F)C1 [P-0579, 4-(4-((1R,5S)-3,8-diazabicyclo[3.2.1]octan-3-yl)-2-(((3,3-difluoro-1-(hydroxymethyl)cyclobutyl)methyl)amino)-8-fluoroquinazolin-7-yl)naphthalen-2-ol]	0.0001 to 10
CN1CCC[C@H]1COc1nc(N2C[C@@H]3CC[C@H]2CN3)c2ccc(-c3cc(O)cc4ccccc34)cc2n1 [P-0011, 4-(4-((1S,4S)-2,5-diazabicyclo[2.2.2]octan-2-yl)-2-(((S)-1-methylpyrrolidin-2-yl)methoxy)quinazolin-7-yl)naphthalen-2-ol]	0.0001 to 10

Next, values leading:

IC50 [µM]	Structure (SMILES)
0.0001 to 10	OCC1(COc2nc(N3C[C@H]4CC[C@@H](C3)N4)c3ccc(-c4cc(O)cc5ccccc45)c(F)c3n2)CC2(CCC2)C1 [P-0569, 4-(4-((1R,5S)-3,8-diazabicyclo[3.2.1]octan-3-yl)-8-fluoro-2-((2-(hydroxymethyl)spiro[3.3]heptan-2-yl)methoxy)quinazolin-7-yl)naphthalen-2-ol]
0.0001 to 10	OCCCc1cccc2[nH]cc(-c3ccc4c(N5C[C@H]6CC[C@@H](C5)N6)nc(OCC56CCCN5CCC6)nc4c3F)c12 [P-0606, 3-(3-(4-((1R,5S)-3,8-diazabicyclo[3.2.1]octan-3-yl)-8-fluoro-2-((tetrahydro-1H-pyrrolizin-7a(5H)-yl)methoxy)quinazolin-7-yl)-1H-indol-4-yl)propan-1-ol]
0.0001 to 10	Oc1cc(-c2ccc3c(N4C[C@H]5CC[C@@H](C4)N5)nc(N4CC5(CCCNC5)C4)nc3c2F)c2ccccc2c1 [P-0600, 4-(4-((1R,5S)-3,8-diazabicyclo[3.2.1]octan-3-yl)-8-fluoro-2-(2,6-diazaspiro[3.5]nonan-2-yl)quinazolin-7-yl)naphthalen-2-ol]
0.0001 to 10	OCC1(C(F)(F)F)CCN(c2nc(N3C[C@H]4CC[C@@H](C3)N4)c3ccc(-c4cc(O)cc5ccccc45)c(F)c3n2)C1 (stereo partly drawn) [P-0576, 4-(4-((1R,5S)-3,8-diazabicyclo[3.2.1]octan-3-yl)-8-fluoro-2-(3-(hydroxymethyl)-3-(trifluoromethyl)pyrrolidin-1-yl)quinazolin-7-yl)naphthalen-2-ol]
